Data taken from patent US9060529B2, “Method for treatment of lacto-N-biose-containing solution” (Morinaga Milk Industry Co., Ltd., priority 2010, dated 2015).

Assays:
[1] = Test Example 3: effect of heating temperature and time on stability of LNB at various pH (2% LNB in buffer, TLC); assay type: physicochemical; set-up: key to extent of decomposition: −: no decomposition; ±: slight decomposition; +: partial decomposition; ++: majority decomposition; +++: almost total decomposition; conditions: for stability of LNB (decomposition by TLC): 65-120° C., 5-60 minutes
Procedure: Samples of the LNB powder prepared in the above Production Example 1 were dissolved at a concentration of 2% in a 0.1 M citrate buffer solution (pH: 5.5, 5.0, 4.0, 3.0) to prepare a series of liquid compositions containing LNB. Further, a portion of the LNB solution having a pH of 3.0 was used to prepare solutions having a pH of 2.0 or 1.0 by adding 1 M hydrochloric acid.
In a separate preparation, a sample of the LNB powder was dissolved at a concentration of 2% in a 0.1 M phosphate buffer having a pH of 7.0 to prepare a liquid composition containing LNB.
Sets containing the liquid compositions containing LNB at each pH value were each heated at a predetermined temperature (65, 70, 80, 90, 100 or 120° C.) for a predetermined period of time (5, 10, 20, 30 or 60 minutes).
Each of the heated liquid compositions containing LNB was cooled, and the same method as that described for Test Example 1 was used to determine whether or not decomposition had occurred, and if so, the extent of that decomposition. Based on the results, the extent of decomposition was evaluated against the criteria listed below.
• − no decomposition • ± slight decomposition • + partial decomposition • ++ majority decomposition • +++ almost total decomposition 2) Test Results: […]

[2] = Test Example 1: effect of pH on stability of LNB upon heating (2% LNB in buffer, TLC of decomposed products); assay type: physicochemical; conditions: 90° C. for 60 minutes
Procedure: Samples of the LNB powder prepared in the above Production Example 1 were dissolved at a concentration of 2% (by mass, this also applies to all subsequent concentration values) in a 0.1 M citrate buffer solution (pH: 3.0 to 6.0), a 0.1 M phosphate buffer solution (pH: 6.0 to 8.0) or a 0.1 M glycine buffer solution (pH: 8.5 to 10.5), thus preparing samples (liquid compositions containing LNB) 1 to 16 having pH values at intervals of 0.5 across the entire pH range mentioned above.
A 5 mL sample of each of the prepared samples 1 to 16 was dispensed into a test tube and heated at 90° C. for 60 minutes.
Each of the heated samples was cooled to 15° C., and 1 μL was then spotted onto a silica gel thin layer chromatography (TLC) plate. The plate was developed using an 80% acetonitrile solvent, and was then immersed in a 5% sulfuric acid solution and colorized by heating in an oven. The existence or absence of decomposed or denatured products (N-acetylglucosamine dehydrate and galactose) and the amount of those decomposed or denatured products were evaluated visually to determine whether or not decomposition had occurred, and if so, the extent of that decomposition.

extent of decomposition ([1]; pH 4.0, 65° C., 5 minutes): −
extent of decomposition ([1]; pH 4.0, 65° C., 10 minutes): −
extent of decomposition ([1]; pH 4.0, 65° C., 20 minutes): −
extent of decomposition ([1]; pH 4.0, 65° C., 30 minutes): −
extent of decomposition ([1]; pH 4.0, 65° C., 60 minutes): −
extent of decomposition ([1]; pH 4.0, 70° C., 5 minutes): −
extent of decomposition ([1]; pH 4.0, 70° C., 10 minutes): −
extent of decomposition ([1]; pH 4.0, 70° C., 20 minutes): −
extent of decomposition ([1]; pH 4.0, 70° C., 30 minutes): −
extent of decomposition ([1]; pH 4.0, 70° C., 60 minutes): −
extent of decomposition ([1]; pH 4.0, 80° C., 5 minutes): −
extent of decomposition ([1]; pH 4.0, 80° C., 10 minutes): −
extent of decomposition ([1]; pH 4.0, 80° C., 20 minutes): −
extent of decomposition ([1]; pH 4.0, 80° C., 30 minutes): −
extent of decomposition ([1]; pH 4.0, 80° C., 60 minutes): −
extent of decomposition ([1]; pH 4.0, 90° C., 5 minutes): −
extent of decomposition ([1]; pH 4.0, 90° C., 10 minutes): −
extent of decomposition ([1]; pH 4.0, 90° C., 20 minutes): −
extent of decomposition ([1]; pH 4.0, 90° C., 30 minutes): −
extent of decomposition ([1]; pH 4.0, 90° C., 60 minutes): −
extent of decomposition ([1]; pH 4.0, 100° C., 5 minutes): −
extent of decomposition ([1]; pH 4.0, 100° C., 10 minutes): −
extent of decomposition ([1]; pH 4.0, 100° C., 20 minutes): −
extent of decomposition ([1]; pH 4.0, 100° C., 30 minutes): −
extent of decomposition ([1]; pH 4.0, 100° C., 60 minutes): −
extent of decomposition ([1]; pH 4.0, 120° C., 5 minutes): −
extent of decomposition ([1]; pH 4.0, 120° C., 10 minutes): −
extent of decomposition ([1]; pH 4.0, 120° C., 20 minutes): −
extent of decomposition ([1]; pH 4.0, 120° C., 30 minutes): −
extent of decomposition ([1]; pH 4.0, 120° C., 60 minutes): −
extent of decomposition ([1]; pH 5.0, 65° C., 5 minutes): −
extent of decomposition ([1]; pH 5.0, 65° C., 10 minutes): −
extent of decomposition ([1]; pH 5.0, 65° C., 20 minutes): −
extent of decomposition ([1]; pH 5.0, 65° C., 30 minutes): −
extent of decomposition ([1]; pH 5.0, 65° C., 60 minutes): −
extent of decomposition ([1]; pH 5.0, 70° C., 5 minutes): −
extent of decomposition ([1]; pH 5.0, 70° C., 10 minutes): −
extent of decomposition ([1]; pH 5.0, 70° C., 20 minutes): −
extent of decomposition ([1]; pH 5.0, 70° C., 30 minutes): −
extent of decomposition ([1]; pH 5.0, 70° C., 60 minutes): −
extent of decomposition ([1]; pH 5.0, 80° C., 5 minutes): −
extent of decomposition ([1]; pH 5.0, 80° C., 10 minutes): −
extent of decomposition ([1]; pH 5.0, 80° C., 20 minutes): −
extent of decomposition ([1]; pH 5.0, 80° C., 30 minutes): −
extent of decomposition ([1]; pH 5.0, 80° C., 60 minutes): −
extent of decomposition ([1]; pH 5.0, 90° C., 5 minutes): −
extent of decomposition ([1]; pH 5.0, 90° C., 10 minutes): −
extent of decomposition ([1]; pH 5.0, 90° C., 20 minutes): −
extent of decomposition ([1]; pH 5.0, 90° C., 30 minutes): −
extent of decomposition ([1]; pH 5.0, 90° C., 60 minutes): −
extent of decomposition ([1]; pH 5.0, 100° C., 5 minutes): −
extent of decomposition ([1]; pH 5.0, 100° C., 10 minutes): −
extent of decomposition ([1]; pH 5.0, 100° C., 20 minutes): −
extent of decomposition ([1]; pH 5.0, 100° C., 30 minutes): −
extent of decomposition ([1]; pH 5.0, 100° C., 60 minutes): ±
extent of decomposition ([1]; pH 5.0, 120° C., 5 minutes): −
extent of decomposition ([1]; pH 5.0, 120° C., 10 minutes): −
extent of decomposition ([1]; pH 5.0, 120° C., 20 minutes): ±
extent of decomposition ([1]; pH 5.0, 120° C., 30 minutes): ±
extent of decomposition ([1]; pH 5.0, 120° C., 60 minutes): ±
extent of decomposition ([1]; pH 5.5, 65° C., 5 minutes): −
extent of decomposition ([1]; pH 5.5, 65° C., 10 minutes): −
extent of decomposition ([1]; pH 5.5, 65° C., 20 minutes): −
extent of decomposition ([1]; pH 5.5, 65° C., 30 minutes): −
extent of decomposition ([1]; pH 5.5, 65° C., 60 minutes): −
extent of decomposition ([1]; pH 5.5, 70° C., 5 minutes): −
extent of decomposition ([1]; pH 5.5, 70° C., 10 minutes): −
extent of decomposition ([1]; pH 5.5, 70° C., 20 minutes): −
extent of decomposition ([1]; pH 5.5, 70° C., 30 minutes): −
extent of decomposition ([1]; pH 5.5, 70° C., 60 minutes): −
extent of decomposition ([1]; pH 5.5, 80° C., 5 minutes): −
extent of decomposition ([1]; pH 5.5, 80° C., 10 minutes): −
extent of decomposition ([1]; pH 5.5, 80° C., 20 minutes): −
extent of decomposition ([1]; pH 5.5, 80° C., 30 minutes): −
extent of decomposition ([1]; pH 5.5, 80° C., 60 minutes): −
extent of decomposition ([1]; pH 5.5, 90° C., 5 minutes): −
extent of decomposition ([1]; pH 5.5, 90° C., 10 minutes): −
extent of decomposition ([1]; pH 5.5, 90° C., 20 minutes): −
extent of decomposition ([1]; pH 5.5, 90° C., 30 minutes): −
extent of decomposition ([1]; pH 5.5, 90° C., 60 minutes): ±
extent of decomposition ([1]; pH 5.5, 100° C., 5 minutes): −
extent of decomposition ([1]; pH 5.5, 100° C., 10 minutes): −
extent of decomposition ([1]; pH 5.5, 100° C., 20 minutes): −
extent of decomposition ([1]; pH 5.5, 100° C., 30 minutes): ±
extent of decomposition ([1]; pH 5.5, 100° C., 60 minutes): +
extent of decomposition ([1]; pH 5.5, 120° C., 5 minutes): −
extent of decomposition ([1]; pH 5.5, 120° C., 10 minutes): ±
extent of decomposition ([1]; pH 5.5, 120° C., 20 minutes): +
extent of decomposition ([1]; pH 5.5, 120° C., 30 minutes): +
extent of decomposition ([1]; pH 5.5, 120° C., 60 minutes): +
extent of decomposition ([1]; pH 7.0, 100° C., 5 minutes): +
extent of decomposition ([1]; pH 7.0, 100° C., 10 minutes): +
extent of decomposition ([1]; pH 7.0, 100° C., 20 minutes): ++
extent of decomposition ([1]; pH 7.0, 100° C., 30 minutes): ++
extent of decomposition ([1]; pH 7.0, 100° C., 60 minutes): +++
extent of decomposition ([1]; pH 7.0, 120° C., 5 minutes): ++
extent of decomposition ([1]; pH 7.0, 120° C., 10 minutes): +++
extent of decomposition ([1]; pH 7.0, 120° C., 20 minutes): +++
extent of decomposition ([1]; pH 7.0, 120° C., 30 minutes): +++
extent of decomposition ([1]; pH 7.0, 120° C., 60 minutes): +++
Compound: CC(=O)N[C@H]1C(O)O[C@H](CO)[C@@H](O)[C@@H]1O[C@@H]1O[C@H](CO)[C@H](O)[C@H](O)[C@H]1O (some centres unmarked) [LNB, Lacto-N-biose]
stability of LNB (decomposition by TLC) ([1]; pH 7.0 or 1.0): decomposition occurred even after heating for 5 minutes
stability of LNB (decomposition by TLC) ([1]; pH not less than 2.0 to not more than 5.5): stable and underwent almost no decomposition
stability of the LNB upon heating (decomposition by TLC) ([2]; pH 5.5 or less, particularly 5.0 or less): stable and underwent almost no decomposition
stability of the LNB upon heating (decomposition by TLC) ([2]; pH 6.0 or higher, particularly 7.0 or higher): significant amounts of decomposed or denatured products were observed
